Laboratory results: ChEMBL document CHEMBL4828703, “Structure-activity relationship study of THZ531 derivatives enables the discovery of BSJ-01-175 as a dual CDK12/13 covalent inhibitor with efficacy in Ewing sarcoma” (Eur J Med Chem, 2021)
Active and inactive are the calls of the source. The calls are words filed in the database; no cut-off is given here.

What was measured:
[1] = Volume of distribution at steady state in Swiss albino mouse at 3 mg/kg, iv measured upto 24 hrs by LC-MS/MS analysis; type: ADME, organism-based; conditions: in vivo
[2] = target: T1, DNA-dependent protein kinase catalytic subunit (Homo sapiens, UniProt P78527); assay: Inhibition of ADP(ATP)-biotin probe binding to DNAPK in human Kelly cells at 1 uM incubated for 6 hrs by KiNativ profiling analysis; type: cell-based
[3] = target: Cyclin-dependent kinase 12 (Homo sapiens) (UniProt Q9NYV4); assay: Covalent binding affinity to CDK12 in CDK12/CyclinK complex (unknown origin) assessed as covalent labeling of Cys1039 in gluc-protease digested CDK12 peptide 1025LASKMAPPDLPHWQDCHE1041 by CE-MS analysis
[4] = Selectivity ratio of IC50 for human Kelly cells harboring CDK12 C1039F mutant to IC50 for human Kelly cells harboring wild type CDK12; type: functional
[5] = target: T2, Cyclin-dependent kinase 12/13 (Homo sapiens) (UniProt Q14004+Q9NYV4); assay: Inhibition of THZ1-biotin binding from CDK12/13 in human Jurkat cells incubated for 3 hrs followed by drug wash-out for 24 hrs by competitive pull down assay; type: cell-based
[6] = Antiproliferative activity against human Kelly cells harboring wild type CDK12 assessed as reduction in cell viability incubated for 72 hrs by CelTiter-Glo assay; type: functional, cell-based
[7] = target: T2, Cyclin-dependent kinase 12/13 (Homo sapiens); assay: Inhibition of CDK12/13 in human jurkat cells assessed as reduction in RNA polymerase 2 CTD phosphorylation at Ser2 residue at 1 uM measured after 6 hrs by immunoblotting analysis; type: cell-based
[8] = Half life in Swiss albino mouse at 3 mg/kg, iv measured upto 24 hrs by LC-MS/MS analysis; type: ADME, organism-based; conditions: in vivo
[9] = target: Cyclin-dependent kinase 7 (Homo sapiens) (UniProt P50613); assay: Inhibition of THZ1-biotin binding from CDK7 in human Jurkat cells at 5 uM incubated for 6 hrs by CyclinH antibody based competitive pull down assay; type: cell-based
[10] = Downregulation of RNA polymerase 2 CTD phosphorylation at Ser5 residue in human Jurkat cells at 2.5 uM incubated for 6 hrs by immunoblotting analysis; type: functional
[11] = target: Cyclin-dependent kinase 12 (Homo sapiens) (UniProt Q9NYV4); assay: Binding affinity to CDK12 in CDK12/CyclinK complex (unknown origin) assessed as increase in CDK12 mass at 10-fold excess concentration incubated for 1 hr by LC-MS analysis
[12] = target: Ribosomal protein S6 kinase alpha-2 (Homo sapiens) (UniProt Q15349); assay: Inhibition of ADP(ATP)-biotin probe binding to RSK3 domain 1 in human Kelly cells at 1 uM incubated for 6 hrs by KiNativ profiling analysis; type: cell-based
[13] = Metabolic stability in mouse liver microsomes assessed as half life; type: ADME, Microsome
[14] = target: Cyclin-dependent kinase 13/Cyclin-K (Homo sapiens, UniProt Q14004); assay: Inhibition of human recombinant CDK13/CyclinK assessed as reduction in substrate phosphorylation using His-c-Myc as substrate preincubated with enzyme for 5 mins followed by substrate addition for 15 mins in presence of [gamma 32P-ATP] by radioactive kinase assay; type: protein-complex assay
[15] = target: Ribosomal protein S6 kinase alpha-3 (Homo sapiens, UniProt P51812); assay: Inhibition of ADP(ATP)-biotin probe binding to RSK2 domain 1 in human Kelly cells at 1 uM incubated for 6 hrs by KiNativ profiling analysis; type: cell-based
[16] = AUClast in Swiss albino mouse at 10 mg/kg, po measured upto 24 hrs by LC-MS/MS analysis; type: ADME, organism-based; design: route oral, dose 10 mg/kg, time <=24; conditions: in vivo
[17] = Downregulation of RNA polymerase 2 CTD phosphorylation at Ser7 residue in human Jurkat cells at 1 uM incubated for 6 hrs by immunoblotting analysis; type: functional
[18] = Cmax in Swiss albino mouse at 10 mg/kg, po measured upto 24 hrs by LC-MS/MS analysis; type: ADME, organism-based; design: route oral, dose 10 mg/kg, time <=24; conditions: in vivo
[19] = Downregulation of RNA polymerase 2 CTD phosphorylation at Ser7 residue in human Jurkat cells at 2.5 uM incubated for 6 hrs by immunoblotting analysis; type: functional
[20] = target: T2, Cyclin-dependent kinase 12/13 (Homo sapiens); assay: Inhibition of CDK12/13 in human jurkat cells assessed as reduction in RNA polymerase 2 CTD phosphorylation at Ser2 residue at 2.5 uM measured after 6 hrs by immunoblotting analysis; type: cell-based
[21] = Antiproliferative activity against human TC71 cells assessed as reduction in cell viability; type: functional, cell-based; conditions: TC-71
[22] = Downregulation of RNA polymerase 2 in human Jurkat cells at 5 uM measured after 6 hrs by immunoblotting analysis; type: functional
[23] = target: T2, Cyclin-dependent kinase 12/13 (Homo sapiens); assay: Inhibition of THZ1-biotin binding from CDK12/13 in human Jurkat cells at 500 nM incubated for 6 hrs by CyclinK antibody based competitive pull down assay; type: cell-based
[24] = target: RAF proto-oncogene serine/threonine-protein kinase (Homo sapiens) (UniProt P04049); assay: Inhibition of ADP(ATP)-biotin probe binding to RAF1 in human Kelly cells at 1 uM incubated for 6 hrs by KiNativ profiling analysis; type: cell-based
[25] = target: Serine/threonine-protein kinase 10 (Homo sapiens) (UniProt O94804); assay: Inhibition of ADP(ATP)-biotin probe binding to LOK in human Kelly cells at 1 uM incubated for 6 hrs by KiNativ profiling analysis; type: cell-based
[26] = target: T2, Cyclin-dependent kinase 12/13 (Homo sapiens); assay: Inhibition of CDK12/13 in human jurkat cells assessed as reduction in RNA polymerase 2 CTD phosphorylation at Ser2 residue at 5 uM measured after 6 hrs by immunoblotting analysis; type: cell-based
[27] = target: Ribosomal protein S6 kinase alpha-4 (Homo sapiens) (UniProt O75676); assay: Inhibition of ADP(ATP)-biotin probe binding to MSK2 domain 1 in human Kelly cells at 1 uM incubated for 6 hrs by KiNativ profiling analysis; type: cell-based
[28] = target: T2, Cyclin-dependent kinase 12/13 (Homo sapiens); assay: Inhibition of CDK12/13 in human Jurkat cells assessed as BRCA1 gene expression at 0.5 to 1 uM incubated for 4 hrs by RT-qPCR analysis; type: cell-based; design: scale not given: the % may be the effect or the level left; conditions: dose 0.5-1 µM
[29] = Downregulation of RNA polymerase 2 in human Jurkat cells at 0.5 uM measured after 6 hrs by immunoblotting analysis; type: functional
TC-71 = assay: Antitumor activity against human TC71 cells xenografted in nude mouse assessed as suppression of tumor growth at 10 mg/kg, ip for 21 days by caliper analysis; type: functional, organism-based; conditions: time 21.0 day
[30] = target: T1, DNA-dependent protein kinase catalytic subunit; assay: Inhibition of human DNAPK by Invitrogen ADAPTA or Z'LYTE biochemical kinase assay
[31] = target: Cyclin-dependent kinase 7 (Homo sapiens) (UniProt P50613); assay: Inhibition of THZ1-biotin binding from CDK7 in human Jurkat cells at 500 nM incubated for 6 hrs by CyclinH antibody based competitive pull down assay; type: cell-based
[32] = Downregulation of RNA polymerase 2 CTD phosphorylation at Ser5 residue in human Jurkat cells at 0.5 uM incubated for 6 hrs by immunoblotting analysis; type: functional
[33] = target: Cyclin-dependent kinase 7/ cyclin H (Homo sapiens, UniProt P50613); assay: Inhibition of CDK7/Cyclin H (unknown origin); type: protein-complex assay
[34] = target: Cyclin-dependent kinase 12 (Homo sapiens) (UniProt Q9NYV4); assay: Inhibition of ADP(ATP)-biotin probe binding to CDK12 in human Kelly cells at 1 uM incubated for 6 hrs by KiNativ profiling analysis; type: cell-based
[35] = Tmax in Swiss albino mouse at 10 mg/kg, po measured upto 24 hrs by LC-MS/MS analysis; type: ADME, organism-based; conditions: in vivo

Sequence of Cyclin-dependent kinase 12 (Homo sapiens) (Q9NYV4 whole entry, looked up, the tested form may be a part): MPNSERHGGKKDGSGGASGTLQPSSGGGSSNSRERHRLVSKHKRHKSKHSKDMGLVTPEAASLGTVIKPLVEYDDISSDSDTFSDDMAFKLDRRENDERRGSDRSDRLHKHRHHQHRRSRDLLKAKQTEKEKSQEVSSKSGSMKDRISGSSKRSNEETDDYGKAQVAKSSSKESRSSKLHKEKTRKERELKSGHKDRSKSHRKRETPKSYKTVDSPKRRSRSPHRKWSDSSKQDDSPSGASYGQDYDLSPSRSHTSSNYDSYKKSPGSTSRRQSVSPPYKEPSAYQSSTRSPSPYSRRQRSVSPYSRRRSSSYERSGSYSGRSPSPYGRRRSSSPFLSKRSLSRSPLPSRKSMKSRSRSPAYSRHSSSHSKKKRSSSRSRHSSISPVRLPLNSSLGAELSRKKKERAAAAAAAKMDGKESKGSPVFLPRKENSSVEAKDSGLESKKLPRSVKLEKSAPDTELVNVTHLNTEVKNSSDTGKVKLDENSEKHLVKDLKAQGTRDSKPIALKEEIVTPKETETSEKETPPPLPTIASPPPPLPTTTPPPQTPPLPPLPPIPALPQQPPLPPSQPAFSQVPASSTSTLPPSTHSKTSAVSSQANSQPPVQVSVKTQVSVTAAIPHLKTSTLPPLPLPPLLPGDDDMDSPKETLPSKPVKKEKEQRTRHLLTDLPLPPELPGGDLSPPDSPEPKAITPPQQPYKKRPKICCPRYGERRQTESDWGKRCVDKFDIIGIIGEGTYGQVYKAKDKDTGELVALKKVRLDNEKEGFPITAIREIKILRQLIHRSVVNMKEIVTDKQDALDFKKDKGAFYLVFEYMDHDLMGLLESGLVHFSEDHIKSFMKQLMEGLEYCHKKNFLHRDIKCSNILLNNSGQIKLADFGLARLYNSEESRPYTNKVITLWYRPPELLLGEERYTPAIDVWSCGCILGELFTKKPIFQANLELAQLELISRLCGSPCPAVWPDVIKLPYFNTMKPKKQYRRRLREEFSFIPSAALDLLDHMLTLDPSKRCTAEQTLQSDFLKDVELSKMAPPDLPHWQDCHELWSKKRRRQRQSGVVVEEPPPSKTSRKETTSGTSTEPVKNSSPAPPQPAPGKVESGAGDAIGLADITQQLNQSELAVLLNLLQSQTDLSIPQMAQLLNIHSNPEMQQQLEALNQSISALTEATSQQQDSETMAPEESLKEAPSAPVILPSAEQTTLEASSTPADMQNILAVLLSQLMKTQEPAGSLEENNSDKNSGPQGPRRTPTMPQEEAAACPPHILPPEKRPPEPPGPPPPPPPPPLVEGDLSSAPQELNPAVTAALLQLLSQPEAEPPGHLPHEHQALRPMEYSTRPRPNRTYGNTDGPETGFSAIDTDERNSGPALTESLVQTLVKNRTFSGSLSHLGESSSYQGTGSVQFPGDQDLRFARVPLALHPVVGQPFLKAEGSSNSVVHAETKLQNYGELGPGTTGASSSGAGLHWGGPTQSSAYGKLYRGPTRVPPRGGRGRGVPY
Sequence of Cyclin-dependent kinase 7 (Homo sapiens) (P50613 whole entry): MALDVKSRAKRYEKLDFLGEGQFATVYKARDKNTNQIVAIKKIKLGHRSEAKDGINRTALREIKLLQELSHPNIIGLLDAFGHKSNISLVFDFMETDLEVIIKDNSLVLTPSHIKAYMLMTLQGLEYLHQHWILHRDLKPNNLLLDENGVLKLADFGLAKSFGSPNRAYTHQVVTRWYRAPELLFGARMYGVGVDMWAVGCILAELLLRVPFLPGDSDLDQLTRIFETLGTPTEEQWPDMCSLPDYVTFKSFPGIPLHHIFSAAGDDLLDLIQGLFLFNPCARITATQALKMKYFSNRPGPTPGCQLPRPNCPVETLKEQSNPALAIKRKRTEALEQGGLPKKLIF
Sequence of Serine/threonine-protein kinase 10 (Homo sapiens) (O94804 whole entry, looked up): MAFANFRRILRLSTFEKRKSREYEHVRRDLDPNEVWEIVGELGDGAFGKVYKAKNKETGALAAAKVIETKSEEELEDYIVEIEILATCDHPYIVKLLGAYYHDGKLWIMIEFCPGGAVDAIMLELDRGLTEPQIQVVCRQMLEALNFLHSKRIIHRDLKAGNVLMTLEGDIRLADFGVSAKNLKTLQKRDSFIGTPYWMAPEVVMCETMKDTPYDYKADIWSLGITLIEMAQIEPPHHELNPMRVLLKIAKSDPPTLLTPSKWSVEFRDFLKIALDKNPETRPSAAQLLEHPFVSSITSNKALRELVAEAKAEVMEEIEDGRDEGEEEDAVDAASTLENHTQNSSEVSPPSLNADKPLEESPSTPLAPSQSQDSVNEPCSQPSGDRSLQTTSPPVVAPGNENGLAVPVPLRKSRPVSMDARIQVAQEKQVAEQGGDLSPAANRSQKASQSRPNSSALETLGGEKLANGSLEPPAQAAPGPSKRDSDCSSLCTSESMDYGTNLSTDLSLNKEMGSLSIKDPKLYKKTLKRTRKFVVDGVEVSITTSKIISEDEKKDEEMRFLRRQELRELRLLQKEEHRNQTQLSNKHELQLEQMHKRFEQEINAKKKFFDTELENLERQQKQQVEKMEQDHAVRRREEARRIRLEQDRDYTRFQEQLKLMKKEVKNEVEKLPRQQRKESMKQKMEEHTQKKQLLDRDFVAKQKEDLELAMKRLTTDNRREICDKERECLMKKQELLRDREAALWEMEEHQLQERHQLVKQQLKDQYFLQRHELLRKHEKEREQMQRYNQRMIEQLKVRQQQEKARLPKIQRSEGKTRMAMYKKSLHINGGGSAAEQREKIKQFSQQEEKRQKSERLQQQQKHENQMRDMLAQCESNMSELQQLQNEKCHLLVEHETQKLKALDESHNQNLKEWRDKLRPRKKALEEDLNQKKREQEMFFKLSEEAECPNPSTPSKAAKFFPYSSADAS
Sequence of Cyclin-dependent kinase 7/ cyclin H (P51946 whole entry): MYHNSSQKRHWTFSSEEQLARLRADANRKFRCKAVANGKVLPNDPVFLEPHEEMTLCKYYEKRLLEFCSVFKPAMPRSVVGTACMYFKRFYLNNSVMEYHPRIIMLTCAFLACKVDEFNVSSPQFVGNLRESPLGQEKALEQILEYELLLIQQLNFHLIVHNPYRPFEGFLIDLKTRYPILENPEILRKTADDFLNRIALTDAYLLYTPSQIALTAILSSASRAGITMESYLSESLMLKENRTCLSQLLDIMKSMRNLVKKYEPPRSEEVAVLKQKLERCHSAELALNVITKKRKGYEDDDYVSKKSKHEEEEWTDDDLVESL
Sequence of Cyclin-dependent kinase 7/ cyclin H (P50613 whole entry): as the sequence (P50613 whole entry) above
Sequence of Ribosomal protein S6 kinase alpha-4 (Homo sapiens) (O75676 whole entry, looked up, the tested form may be a part): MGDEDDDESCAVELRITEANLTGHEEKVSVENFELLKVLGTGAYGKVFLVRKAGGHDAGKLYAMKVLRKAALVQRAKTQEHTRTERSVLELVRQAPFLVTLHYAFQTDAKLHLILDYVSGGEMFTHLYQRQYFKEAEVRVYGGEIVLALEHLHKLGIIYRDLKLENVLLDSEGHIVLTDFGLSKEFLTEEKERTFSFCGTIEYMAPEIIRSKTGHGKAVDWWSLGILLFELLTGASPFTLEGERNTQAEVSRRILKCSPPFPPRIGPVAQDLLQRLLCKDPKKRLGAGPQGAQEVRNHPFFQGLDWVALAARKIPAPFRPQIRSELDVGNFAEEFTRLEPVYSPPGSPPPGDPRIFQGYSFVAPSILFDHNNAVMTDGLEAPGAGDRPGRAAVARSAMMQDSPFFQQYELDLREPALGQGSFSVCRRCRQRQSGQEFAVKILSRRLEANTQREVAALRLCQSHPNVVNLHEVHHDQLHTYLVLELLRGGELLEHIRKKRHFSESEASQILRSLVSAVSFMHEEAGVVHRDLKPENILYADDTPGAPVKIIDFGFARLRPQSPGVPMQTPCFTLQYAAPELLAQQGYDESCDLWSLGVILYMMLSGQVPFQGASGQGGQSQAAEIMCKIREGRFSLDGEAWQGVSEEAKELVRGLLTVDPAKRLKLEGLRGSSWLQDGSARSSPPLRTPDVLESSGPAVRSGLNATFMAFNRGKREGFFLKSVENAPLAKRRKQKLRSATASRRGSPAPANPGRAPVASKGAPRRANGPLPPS
Sequence of Ribosomal protein S6 kinase alpha-2 (Homo sapiens) (Q15349 whole entry, the tested form may be a part): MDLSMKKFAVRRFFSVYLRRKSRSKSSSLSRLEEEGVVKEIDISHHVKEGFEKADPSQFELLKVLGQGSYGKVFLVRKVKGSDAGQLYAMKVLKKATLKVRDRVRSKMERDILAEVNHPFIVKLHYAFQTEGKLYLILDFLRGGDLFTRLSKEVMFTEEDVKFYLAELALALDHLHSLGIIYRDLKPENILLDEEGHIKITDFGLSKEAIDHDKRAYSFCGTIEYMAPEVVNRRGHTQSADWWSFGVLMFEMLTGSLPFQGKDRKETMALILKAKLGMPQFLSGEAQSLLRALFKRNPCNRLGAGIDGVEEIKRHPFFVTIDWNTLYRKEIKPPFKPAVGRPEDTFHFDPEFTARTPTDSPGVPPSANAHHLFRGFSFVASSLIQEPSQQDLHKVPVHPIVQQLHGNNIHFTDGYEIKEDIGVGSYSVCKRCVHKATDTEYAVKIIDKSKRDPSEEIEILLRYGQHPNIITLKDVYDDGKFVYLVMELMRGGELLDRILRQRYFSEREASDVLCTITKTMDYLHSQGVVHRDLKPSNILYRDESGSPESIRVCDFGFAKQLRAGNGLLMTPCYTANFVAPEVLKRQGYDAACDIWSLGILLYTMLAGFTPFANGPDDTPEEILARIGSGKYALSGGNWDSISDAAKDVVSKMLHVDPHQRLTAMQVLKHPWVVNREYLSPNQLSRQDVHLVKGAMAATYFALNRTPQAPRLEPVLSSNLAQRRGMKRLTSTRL

CN(C)C/C=C/C(=O)Nc1ccc(O[C@@H]2CCC[C@@H](Nc3ncc(Cl)c(-c4c[nH]c5ccccc45)n3)C2)cc1
Vdss [1]: 3.9 L/kg
inhibition [2]: 38.3%
Activity [3]: Active
Ratio IC50 [4]: 5
inhibition [5]: Active
IC50 [6]: 0.0422 µM
inhibition [7]: 78%
t1/2 [8]: 2.2 h
inhibition [9]: Active
inhibition at 2.5 µM [10]: 47%
Activity [11]: Active
inhibition [12]: 41.6%
t1/2 [13]: 8 min
IC50 [14]: 0.283 µM
inhibition [15]: 46%
AUClast [16]: 1043 ng·h/mL
inhibition at 1 µM [17]: 41%
Cmax [18]: 272 ng/mL
inhibition at 2.5 µM [19]: 58%
inhibition [20]: 87%
IC50 [21]: 0.16 µM
inhibition at 5 µM [22]: 38%
inhibition [23]: Active
inhibition [24]: 37.8%
inhibition [25]: 33.9%
inhibition [26]: 89%
inhibition [27]: 40.3%
Activity [28]: 30%
inhibition at 0.5 µM [29]: 0%
Activity (TC-71): Active
IC50 [30]: > 10 µM
inhibition [31]: inactive
inhibition at 0.5 µM [32]: 0%
IC50 [33]: 0.187 µM
inhibition [34]: 76.8%
Tmax [35]: 2 h
